Assay results: US20110105544A1, “CARBOXYLIC DERIVATIVES FOR USE IN THE TREATMENT OF CANCER” (priority 2007, published 2011)
Counter-ions that a name gives are not always drawn.

Experiments:
[1] = tested on: human colon cancer cell line HCT116; assay: alamarBlue viability assay, HCT116; assay type: cell-based; details: HCT-116, 72 hours, dose required to inhibit cell growth by 50%
Procedure: The human colon cancer cell line HCT116 and the human breast cancer cell line MCF-7 were from the American Type Culture Collection (ATCC; CCL-247 and HTB-22, respectively).
The HCT116 cell line was maintained in DMEM GlutaMAX (Invitrogen) supplemented with 10% fetal calf serum and the MCF7 cell line was maintained in RPMI1640 GlutaMAX (Invitrogen) containing 1 mM sodium piruvate and 10% fetal calf serum.
Cells were grown in a humidified incubator at 37° C. in 5% CO2.
Cells were plated in 96-well plates at a density of 6000 cells/well in 100 μl medium 24 h before addition of drugs. […] To do so, a drugs-dilution plate at twice the screening concentrations was prepared. 72 hours later, alamarBlue (Biosource, Invitrogen) viability assay was performed following manufacturer's protocol. In brief, alamarBlue diluted in media was added to cells to have a 5% solution. Cells were incubated at 37° C., 3 hours and at room temperature, 30 min. Cells with no drug and, cells with no drug and lysed with triton X-100 were used as controls. Fluorescence was monitored at 530 nm excitation and 590 nm emission wavelengths. Results were quantified using Infinite F200 Microplate Reader (Tecan Group, Ltd.). EC50 were calculated as the dose of drugs required to inhibit cell growth by 50%, with Origin 7.0 computer program.

[2] = molecular target: T1, human recombinant HDAC 2 (Homo sapiens, UniProt Q92769); assay: HDAC inhibition assay (Fluor de Lys), HDAC2; assay type: biochemical; details: inhibitor-protein incubation 2 hours, reaction 1 h 30 min, 37° C.
T1 construct: purchased BPS Bioscience 50002
T1 sequence (Q92769 whole entry): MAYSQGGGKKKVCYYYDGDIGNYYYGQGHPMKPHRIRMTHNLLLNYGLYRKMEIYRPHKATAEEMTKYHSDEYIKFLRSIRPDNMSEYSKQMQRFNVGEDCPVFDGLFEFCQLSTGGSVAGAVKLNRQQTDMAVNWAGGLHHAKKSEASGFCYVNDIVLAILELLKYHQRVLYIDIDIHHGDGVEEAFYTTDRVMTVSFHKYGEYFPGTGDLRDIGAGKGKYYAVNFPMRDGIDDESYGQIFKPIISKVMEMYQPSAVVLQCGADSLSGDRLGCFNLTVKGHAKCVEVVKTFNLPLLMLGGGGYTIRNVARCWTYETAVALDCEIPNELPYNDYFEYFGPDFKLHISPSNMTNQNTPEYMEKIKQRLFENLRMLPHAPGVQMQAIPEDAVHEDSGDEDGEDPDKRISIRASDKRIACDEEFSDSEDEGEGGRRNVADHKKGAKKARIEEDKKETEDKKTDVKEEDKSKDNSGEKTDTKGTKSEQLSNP
Procedure: All assays were carried out in the assay buffer: 50 mM Tris/Cl, pH 8.0, 137 mM NaCl, 2.7 mM KCl, 1 mM MgCl2).
Reactions were carried out in a 96-wells microplate (Corning 96 well Flat Bottom Non-binding surface (black) ref. 3651).
Potential inhibitors were added after five fold serial dilutions in DMSO. Final DMSO concentration in the assay microplate was kept at 2%.
Afterwards, human recombinant HDAC1, HDAC 2 or HDAC 8 were added up to […] respectively in assay buffer. When necessary, the mixture was incubated at room temperature prior the addition of substrate.
Total reaction volume of 50 μl. Human recombinant HDACs could be acquired from commercial sources (HDAC1: ref. #50001, BPS Bioscience™; HDAC 2: ref. #50002, BPS Bioscience™; HDAC 8: ref. #50008, BPS Bioscience™).
Reactions were stopped with 50 μl Developer (KI-105 Fluor de Lys™, BIOMOL®) with 2 μmol/L trichostatin A (TSA, final concentration 1 μmol/L). After 20 minutes at 37° C., fluorescence (excitation 360 nm, emission 460 nm) was measured using an Infinite F200 fluorimeter (Tecan). Background was determined in reactions using substrate in the absence of enzyme.
IC50 values are defined as the compound concentration at which the deacetylase activity is 50% inhibited. In these assays the following grading was used (I: IC50≦10 μM; II: 10 μM<IC50≦100 μM; III: 100 μM<IC50≦1 mM) The results obtained are summarized in Table 4.

| Compound | EC50 [1] [µM] | IC50 [2] [µM] |
| --- | --- | --- |
| O=C(O)C(CCCc1ccccc1)CCc1ccc(Oc2ccc(C(F)(F)F)cc2)cc1 (stereo not drawn) [Example 66, 2-{2-[4-(4-Trifluoromethylphenoxy)phenyl]ethyl}-5-phenyl pentanoic acid] | – | 100 to 1000 |
| O=C(O)C(CCCc1ccccc1)CCc1ccc(-c2ccsc2)cc1 (stereo not drawn) [Example 75, 2-{2-[4′-(3-Thienyl)phenyl]ethyl}-5-phenylpentanoic acid] | 184 | 100 to 1000 |
| O=C(O)C(CCCc1ccccc1)CCc1ccc(-c2ccco2)cc1 (stereo not drawn) [Example 73, 2-{2-[4′-(2-Furyl)phenyl]ethyl}-5-phenylpentanoic acid] | 48.6 | 100 to 1000 |
| O=C(O)C(CCCc1ccccc1)SCc1ccccc1 (stereo not drawn) [Example 70, Sodium 2-(benzylthio)-5-phenylpentanoate] | 825 | 100 to 1000 |
| CCc1ccc(CCC(CCCc2ccc(S(=O)(=O)Nc3ccccc3)cc2)C(=O)OC)cc1 (stereo not drawn) [Example 47, Methyl 5-[4-(anilinosulfonyl)phenyl]-2-[2-(4-ethylphenyl)ethyl]pentanoate] | 23 | – |
| CC(=O)OCOC(=O)C(CCCc1ccccc1)CCc1ccc(OCc2ccccc2)cc1 (stereo not drawn) [Example 56, (Acetyloxy)methyl 2-[2-(4-benzyloxyphenyl)ethyl]-5-phenyl pentanoate] | 56 | – |
| CC(=O)OCOC(=O)C(CCCc1ccccc1)CCc1ccccc1 (stereo not drawn) [Example 16, (Acetyloxy)methyl 5-phenyl-2-(2-phenylethyl)pentanoate] | 267 | – |
| CCc1ccc(CCC(CCCc2cccc3ccccc23)C(=O)O)cc1 (stereo not drawn) [Example 50, 5-(1-Naphthyl)-2-[2-(4-ethylphenyl)ethyl]-pentanoic acid] | 103 | 100 to 1000 |
| CNS(=O)(=O)c1cccc(CCCC(CCc2ccccc2)C(=O)OC)c1 (stereo not drawn) [Example 42, Methyl 5-(3-[(methylamino)sulfonyl]phenyl)-2-(2-phenylethyl)pentanoate] | 56 | – |
| COc1ccc(NS(=O)(=O)c2cccc(CCCC(CCc3ccccc3)C(=O)OCOC(C)=O)c2)cc1OC (stereo not drawn) [Example 17, (Acetyloxy)methyl 5-(3-{[(3,4-dimethoxyphenyl)amino]sulfonyl}phenyl)-2-(2-phenylethyl)pentanoate] | 62 | – |
| O=C(O)C(CCc1ccccc1)SCCc1ccccc1 (stereo not drawn) [Example 68, 4-Phenyl-2-[(2-phenylethyl)thio]butanoic acid] | – | 100 to 1000 |
| Nc1ccc(CCC(CCCc2ccccc2)C(=O)O)cc1 (stereo not drawn) [Example 32, 2-[2-(4-Aminophenyl)ethyl]-5-phenylpentanoic acid] | – | 100 to 1000 |
| O=C(O)C(CCCc1ccccc1)CCc1ccc(O)cc1 (stereo not drawn) [Example 54, 2-[2-(4-hydroxyphenyl)ethyl]-5-phenylpentanoic acid] | – | 100 to 1000 |
| CC(=O)OCOC(=O)C(CCCc1cccc(S(=O)(=O)Nc2ccc(C)cc2)c1)CCc1ccccc1 (stereo not drawn) [Example 18] | 95 | – |
| CC(=O)OCOC(=O)C(CCc1ccccc1)Cc1ccccc1 (stereo not drawn) [Example 15, (Acetyloxy)methyl 2-benzyl-4-phenylbutanoate] | 85 | – |
| O=C(O)C(CCCc1ccccc1)CCc1ccc(Br)cc1 (stereo not drawn) [Example 52, 2-[2-(4-Bromophenyl)ethyl]-5-phenylpentanoic acid] | 107 | 100 to 1000 |
| O=C(O)C(CCCc1ccccc1)CCc1ccc(Oc2ccc(F)cc2)cc1 (stereo not drawn) [Example 64, 2-{2-[4-(4-Fluorophenoxy)phenyl]ethyl}-5-phenylpentanoic acid] | – | 100 to 1000 |

Other lines, results leading:

| EC50 [1] [µM] | IC50 [2] [µM] | Compound |
| --- | --- | --- |
| 36.7 | 100 to 1000 | O=C(O)C(CCCc1cccc2ccccc12)CCc1ccc(-c2cccs2)cc1 (stereo not drawn) [Example 79, 5-(1-Naphthyl)-2-[2-(4′-thien-2-ylphenyl)ethyl]-pentanoic acid] |
| – | 100 to 1000 | O=C(O)C(CCCc1ccccc1)CCc1ccc(OCc2ccncc2)cc1 (stereo not drawn) [Example 60, 2-{2-[4-(Pyridin-4-ylmethoxy)phenyl]ethyl}-5-phenylpentanoic acid] |
| 166 | 10 to 100 | O=C(O)C(CCCc1ccccc1)CCc1ccc(-c2ccncc2)cc1 (stereo not drawn) [Example 76, 2-{2-[(4′-Pyridinyl)phenyl-4-yl]ethyl}-5-phenylpentanoic acid hydrochloride] |
| – | 100 to 1000 | O=C(O)C(CCCc1ccccc1)CCc1ccc(Oc2ccccc2)cc1 (stereo not drawn) [Example 65, 2-{2-[4-Phenoxyphenyl]ethyl}-5-phenylpentanoic acid] |
| 71.4 | 10 to 100 | O=C(O)C(CCCc1ccccc1)CCc1ccc(NCc2ccccc2)cc1 (stereo not drawn) [Example 33, 2-[2-(4-(Benzylamino)phenyl)ethyl]-5-phenylpentanoic acid] |
| 88.3 | 10 to 100 | O=C(O)C(CCCc1ccccc1)CCc1ccc(-c2ccccc2)cc1 (stereo not drawn) [Example 72, 2-[2-(1,1′-Biphenyl-4-yl)ethyl]-5-phenylpentanoic acid] |
| 87.2 | 10 to 100 | O=C(O)C(CCCc1ccccc1)CCc1ccc(-c2cccs2)cc1 (stereo not drawn) [Example 78, 5-Phenyl-2-[2-(4′-thien-2-ylphenyl)ethyl]pentanoic acid] |
| 160 | 10 to 100 | O=C(O)C(CCCc1ccccc1)CCc1ccc(OCc2ccccn2)cc1 (stereo not drawn) [Example 58, 2-{2-[4-(Pyridin-2-ylmethoxy)phenyl]ethyl}-5-phenylpentanoic acid] |
| – | 10 to 100 | O=C(O)C(CCCc1ccccc1)CCC1CNc2ccccc21 (mixture of isomers) [Example 53, 2-[2-(2,3-Dihydro-1H-indol-3-yl)ethyl]-5-phenylpentanoic acid] |
| 88 | 10 to 100 | N#Cc1ccc(Oc2ccc(CCC(CCCc3ccccc3)C(=O)O)cc2)cc1 (stereo not drawn) [Example 63, 2-{2-[4-(4-cyanophenoxy)phenyl]ethyl}-5-phenylpentanoic acid] |
| – | 10 to 100 | O=C(O)C(CCCc1ccccc1)CCc1ccc(OCc2cccnc2)cc1 (stereo not drawn) [Example 59, 2-{2-[4-(Pyridin-3-ylmethoxy)phenyl]ethyl}-5-phenyl pentanoic acid] |
| 121 | 10 to 100 | Cc1ccc(S(=O)(=O)Nc2cccc(CCCC(CCc3ccccc3)C(=O)O)c2)cc1 (stereo not drawn) [Example 25, 5-(3′-{[(4-Methylphenyl)sulfonyl]amino}phenyl)-2-(2-phenylethyl)pentanoic acid] |
| – | 10 to 100 | COc1ccc(Oc2ccc(CCC(CCCc3ccccc3)C(=O)O)cc2)cc1 (stereo not drawn) [Example 67, 2-{2-[4-(4-Methoxyphenoxy)phenyl]ethyl}-5-phenylpentanoic acid] |
| 112 | 10 to 100 | CCc1ccc(CCC(CCCCc2ccccc2)C(=O)O)cc1 (stereo not drawn) [Example 48, 2-[2-(4-Ethylphenyl)ethyl]-6-phenylhexanoic acid] |
| 107 | 10 to 100 | O=C(O)C(CCCc1cccc2ccccc12)CCc1ccc(-c2cccnc2)cc1 (stereo not drawn) [Example 80, 5-(1-Naphthyl)-2-[2-(4′-pyridin-3-ylphenyl)ethyl]-pentanoic acid] |
| 70.7 | 10 to 100 | N#Cc1ccccc1Oc1ccc(CCC(CCCc2ccccc2)C(=O)O)cc1 (stereo not drawn) [Example 61, 2-{2-[4-(2-Cyanophenoxy)phenyl]ethyl}-5-phenylpentanoic acid] |
| 95 | 10 to 100 | Cc1ccc(NS(=O)(=O)c2cccc(CCCC(CCCc3ccccc3)C(=O)O)c2)cc1 (stereo not drawn) [Example 44, 5-[3-(4-methylanilinosulfonyl)phenyl]-2-(3-phenylpropyl)pentanoic acid] |
| 256 | 10 to 100 | O=C(O)C(CCCCc1ccccc1)CCc1ccccc1 (stereo not drawn) [Example 14, 6-Phenyl-2-(2-phenylethyl)hexanoic acid] |
| 94.5 | 10 to 100 | O=C(O)C(CCCc1ccccc1)CCc1ccc(-c2ccoc2)cc1 (stereo not drawn) [Example 74, 2-{2-[4′-(3-Furyl)phenyl]ethyl}-5-phenylpentanoic acid] |
| 155 | 10 to 100 | N#Cc1cccc(Oc2ccc(CCC(CCCc3ccccc3)C(=O)O)cc2)c1 (stereo not drawn) [Example 62, 2-{2-[4-(3-cyanophenoxy)phenyl]ethyl}-5-phenylpentanoic acid] |
